Measured values taken from patent publication US10183015B2, “Heterocyclic compounds and methods of use” (Medivation Technologies LLC, priority 2015, dated 2019).
Where “and” joins values, the source holds several entries; their conditions need not be identical. Equal entries are not always repeated.

What was measured:
HepG2 cells = assay: HepG2 cell viability under serum-free conditions (MTS); format: cell-based; conditions: Homo sapiens
Method: Cancer cells such as HepG2 cells depend on SREBP activation and de novo lipogenesis to survive, particularly in low serum or serum-free conditions. Using this model, compounds were screened over 24 hours for the ability to block cleavage of SREBP to its active form and over 72 hours for an effect on cell viability under serum-free conditions.
For viability measurements, HepG2 cells were seeded at 5,000 cells per well in 96-well plates in DMEM supplemented with 10% FBS. After 1 day in culture, cells were treated with compounds (20 μM & 5 μM) for 3 days in DMEM without FBS. Viability was measured by MTS […]. […]

[1] = test system: diet-induced NASH obese insulin resistant mice; assay: Diet-induced NASH (DIN) obese insulin-resistant mouse model: plasma ALT and AST; format: in vivo; conditions: for ALAT area under the curve / ASAT area under the curve / ALAT, days of treatment 0 / ASAT, days of treatment 0 / ALAT, days of treatment 14 / ASAT, days of treatment 14 / ALAT, days of treatment 28 / ASAT, days of treatment 28 / ALAT, days of treatment 42 / ASAT, days of treatment 42 / ALAT, days of treatment 56 / ASAT, days of treatment 56 / ALAT, days of treatment 70 / ASAT, days of treatment 70: plasma; for ALAT area under the curve / ASAT area under the curve: 70-day treatment; for ALAT area under the curve / ASAT area under the curve / ALAT, days of treatment 0 / ASAT, days of treatment 0: 20 mg/kg; for ALAT, days of treatment 0 / ASAT, days of treatment 0: day 0 (baseline); for ALAT, days of treatment 14 / ASAT, days of treatment 14: day 14, 20 mg/kg; for ALAT, days of treatment 28 / ASAT, days of treatment 28: day 28, 20 mg/kg; for ALAT, days of treatment 42 / ASAT, days of treatment 42: day 42, 20 mg/kg; for ALAT, days of treatment 56 / ASAT, days of treatment 56: day 56, 20 mg/kg; for ALAT, days of treatment 70 / ASAT, days of treatment 70: day 70, 20 mg/kg
Method: (§1) Male C57Bl/6J mice (8 weeks old) were housed in enriched ventilated cages (31×12.5×12.7 cm) throughout the experimental phase. Animals' cages litters were changed at least once a week. Animal were housed 5 per cage on inverted 12-hour light cycle (at 09:00 am lights off), 22±2° C. and 55±10% relative humidity. The acclimation period was 20 days. During the acclimation period, all mice were fed a standard diet (RM1 (E) 801492, SDS) and tap water ad libitum. After the acclimation period, mice were fed with the DIN diet (60% fat, cholesterol enriched) and fructose-enriched tap water ad libitum until the end of the experiment.
(§2) At 6 weeks of diet, mice were 4-hour fasted (09:00 am to 1:00 pm) and blood (150 μl/EDTA) was collected at 01:00 pm by retro-orbital bleeding under isoflurane anesthesia. Mice were then allocated in 2 homogenous groups (n=12/group) according to their plasma levels of ALT (average levels: 685U/L), AST (average levels: 627U/L) and HOMA-IR index (average value: 4.7), into 2 homogenous groups (see values at day 0 in Tables 15A and 15B ALT/AST and Tables 16A and 16B for HOMA-IR). Mice were then treated once daily by oral gavage with vehicle (Group 1) or Compound #37 at 20 mg/kg (Group 2) for 70 days.
To investigate whether Compound #37 improves pre-existing steatosis/NASH pathology, a study was conducted using a 16-week diet-induced NASH mouse model. In this model, mice develop steatosis that progresses with inflammation and fibrosis that mimic many of the observed pathologies in human nonalcoholic fatty liver disease (NAFLD) and NASH (Hebbard & George, 2010). For 6 weeks, mice were fed a high-fat, high-cholesterol diet and provided drinking water containing fructose to induce liver pathology (Charlton et al, 2011). After 6 weeks, the mice were divided into 2 groups with similar mean aspartate aminotransferase (AST) and alanine aminotransferase (ALT) values (n=12 mice), although it should be noted that AST and ALT concentrations within both groups were higher and with greater variability than anticipated (e.g., mean ALT 677 U/L [SD, 401 U/L] in the vehicle control group and 693 U/L [SD, 365 U/L] in the Compound #37 group). After the animals were divided into 2 groups, the diet was continued for 10 additional weeks during which time 1 group received vehicle and the other was treated with 20 mg/kg/day Compound #37.

[2] = DIN mouse model: body weight, food and water intake, mortality; format: in vivo
Method: as §1, §2
Results. […] Water intake tended to be higher in mice treated with, resulting in a 17% increase in cumulative water intake (p<0.05 vs. vehicle). […]

[3] = test system: diet-induced NASH obese insulin resistant mice; assay: DIN mouse model: liver Sirius Red staining (% labeling, collagen deposition); format: in vivo; conditions: for Sirius red labeling: liver
Method: as §1, §2
Slides having a single hepatic lobe section stained with H&E and […] were digitized using a Nanozoomer from Hamamatsu. Sections were evaluated with knowledge of groups. In agreement with the unchanged hepatic triglycerides levels, oil red O staining and % labeling was not changed with Compound #37. A substantial reduction in Sirius Red labeling was also observed, leading to a 61% reduction (p<0.001 vs. vehicle) in % labeling.
To investigate whether Compound #37 improves pre-existing steatosis/NASH pathology, a study was conducted using a 16-week diet-induced NASH mouse model. In this model, mice develop steatosis that progresses with inflammation and fibrosis that mimic many of the observed pathologies in human nonalcoholic fatty liver disease (NAFLD) and NASH (Hebbard & George, 2010). […]

PERK = assay: DIN mouse model: hepatic PERK gene expression; format: in vivo; conditions: liver, 20 mg/kg group
Method: Gene expression analysis. Hepatic expression levels of genes involved in lipid metabolism (FAS, SREBP1, ACC1, SCD1), cholesterol metabolism (HMG-CoAR, LDLR), SREBP proteolysis (SCAP, INSIG1), ER stress (PERK), oxidative stress (NRF2), inflammation (MCP-1), and fibrosis (collagen 1α1) were quantified by RTqPCR. Expression level was normalized to 18S gene expression and relative expression to vehicle group was calculated with the […] method.
as §1, §2
Hepatic expression levels of genes involved in lipid (FAS, SREBP1, ACC1, SCD1), cholesterol metabolism (HMG-CoAR, LDLR), in SREBP proteolysis (SCAP, INSIG1), in ER stress (PERK), oxidative stress (NRF2), and inflammation (MCP-1) were not changed. However, expression of collagen 1α1, involved in liver fibrosis, was reduced by 66% in mice treated with Compound #37 (p<0.05 vs. vehicle).

[4] = individual animals, vs vehicle mean, 20 mg/kg

CC(C)Cc1cc(-c2nc(-c3ccc(NS(=O)(=O)C(F)(F)F)cc3Cl)cs2)ccn1 [Compound 37, N-(3-chloro-4-(2-(2-isobutylpyridin-4-yl)thiazol-4-yl)phenyl)-1,1,1-trifluoromethanesulfonamide]
cytotoxicity at 5 µM (HepG2 cells; HepG2, 72 h, 5 μM, 3 days, DMEM without FBS, read-out: Average Viability (% Inhibition, n = 3)): 94%
cytotoxicity at 20 µM (HepG2 cells; HepG2, 72 h, 20 μM, 3 days, DMEM without FBS, read-out: Average Viability (% Inhibition, n = 3)): 95%
IC50 (HepG2 cells; HepG2, serum-free, read-out: IC50 for decreased viability of HepG2 cells): 2100 nM
hepatotoxicity (transaminase concentrations) ([1]; 20 mg/kg/day, 10 weeks): No evidence of hepatotoxicity
ALAT area under the curve ([1]; group mean, n 11): 12252 U/L · day
ASAT area under the curve ([1]; group mean, n 11): 10763 U/L · day
ALAT area under the curve ([1]; individual animals): 18578 U/L · day and 17206 U/L · day and 11865 U/L · day and 9163 U/L · day and 5418 U/L · day and 9331 U/L · day and 17759 U/L · day and 11949 U/L · day and 16954 U/L · day and 8862 U/L · day and 7686 U/L · day
ASAT area under the curve ([1]; individual animals): 18662 U/L · day and 15001 U/L · day and 8456 U/L · day and 8141 U/L · day and 5607 U/L · day and 6573 U/L · day and 11550 U/L · day and 10388 U/L · day and 13167 U/L · day and 11690 U/L · day and 9163 U/L · day
ALAT, days of treatment 0 ([1]; group mean, n 12): 693 U/L
ASAT, days of treatment 0 ([1]; group mean, n 12): 615 U/L
ALAT, days of treatment 0 ([1]; individual animals): 1520 U/L and 698 U/L and 955 U/L and 551 U/L and 226 U/L and 365 U/L and 625 U/L and 563 U/L and 830 U/L and 662 U/L and 260 U/L and 1065 U/L
ASAT, days of treatment 0 ([1]; individual animals): 1440 U/L and 875 U/L and 584 U/L and 435 U/L and 217 U/L and 269 U/L and 464 U/L and 500 U/L and 725 U/L and 730 U/L and 283 U/L and 860 U/L
ALAT, days of treatment 14 ([1]; group mean, n 12): 255 U/L
ASAT, days of treatment 14 ([1]; group mean, n 12): 249 U/L
ALAT, days of treatment 14 ([1]; individual animals): 250 U/L and 252 U/L (2×) and 218 U/L and 200 U/L and 92 U/L and 198 U/L and 256 U/L and 410 U/L and 690 U/L and 134 U/L and 106 U/L
ASAT, days of treatment 14 ([1]; individual animals): 296 U/L and 268 U/L and 206 U/L and 228 U/L and 124 U/L and 150 U/L and 190 U/L and 288 U/L and 440 U/L and 248 U/L and 428 U/L and 126 U/L
ALAT, days of treatment 28 ([1]; group mean, n 12): 146 U/L
ASAT, days of treatment 28 ([1]; group mean, n 12): 146 U/L
ALAT, days of treatment 28 ([1]; individual animals): 176 U/L and 118 U/L and 96 U/L and 68 U/L and 58 U/L and 316 U/L and 226 U/L and 154 U/L and 160 U/L and 208 U/L and 38 U/L and 136 U/L
ASAT, days of treatment 28 ([1]; individual animals): 238 U/L and 98 U/L and 84 U/L and 76 U/L and 80 U/L and 168 U/L and 140 U/L and 102 U/L and 222 U/L and 288 U/L and 68 U/L and 190 U/L
ALAT, days of treatment 42 ([1]; group mean, n 12): 143 U/L
ASAT, days of treatment 42 ([1]; group mean, n 12): 136 U/L
ALAT, days of treatment 42 ([1]; individual animals): 68 U/L and 280 U/L and 52 U/L and 50 U/L (2×) and 136 U/L and 58 U/L and 168 U/L and 92 U/L and 66 U/L and 370 U/L and 322 U/L
ASAT, days of treatment 42 ([1]; individual animals): 88 U/L and 132 U/L and 80 U/L and 110 U/L and 140 U/L and 96 U/L and 200 U/L and 106 U/L and 130 U/L and 76 U/L and 174 U/L and 296 U/L
ALAT, days of treatment 56 ([1]; group mean, n 11): 136 U/L
ASAT, days of treatment 56 ([1]; group mean, n 11): 126 U/L
ALAT, days of treatment 56 ([1]; individual animals): 276 U/L and 80 U/L and 48 U/L and 68 U/L and 52 U/L and 54 U/L and 112 U/L and 130 U/L and 534 U/L and 70 U/L and 74 U/L
ASAT, days of treatment 56 ([1]; individual animals): 346 U/L and 122 U/L and 92 U/L and 108 U/L and 60 U/L and 96 U/L and 132 U/L and 112 U/L and 182 U/L and 130 U/L and 164 U/L
ALAT, days of treatment 70 ([1]; group mean, n 11): 413 U/L
ASAT, days of treatment 70 ([1]; group mean, n 11): 281 U/L
ALAT, days of treatment 70 ([1]; individual animals): 364 U/L and 1030 U/L and 326 U/L and 372 U/L and 210 U/L and 342 U/L and 1150 U/L and 358 U/L and 142 U/L (2×) and 104 U/L
ASAT, days of treatment 70 ([1]; individual animals): 258 U/L and 648 U/L and 162 U/L and 206 U/L and 180 U/L and 160 U/L and 524 U/L and 376 U/L and 182 U/L and 198 U/L and 192 U/L
body weight and body weight gain ([2]; 20 mg/kg p.o. daily, 70 days): non-significant trend towards lower
tolerability ([2]; 20 mg/kg/day, 10 weeks): generally well tolerated
Sirius Red % labeling reduction ([3]; 20 mg/kg, 70 days, p<0.001 vs. vehicle): 61%
Sirius red labeling ([3]; 20 mg/kg group, mean, n 11): 0.7%
Sirius red labeling ([3]; 20 mg/kg, individual animals): 0.5% and 0.8% (4×) and 0.6% (2×) and 1.0% and 0.9% and 0.7% (2×)
PERK Dct (PERK; individual animals, normalised to 18S, 20 mg/kg): 14.23 and 14.41 and 16.11 and 14.89 and 14.95 and 14.18 and 14.85 and 14.3 and 15.75 and 16.07 and 12.9
PERK 2^DDct (PERK; [4]): 1.2 and 1.06 and 0.33 and 0.76 and 0.73 and 1.24 and 0.78 and 1.15 and 0.42 and 0.34 and 3.02
PERK DDct (PERK; [4]): −0.27 and −0.09 and 1.61 and 0.39 and 0.45 and −0.32 and 0.35 and −0.2 and 1.25 and 1.57 and −1.6
PERK (Ct) (PERK; individual animals, 20 mg/kg): 26.78 and 26.96 and 28.95 and 27.32 and 27.3 and 26.77 and 26.58 and 26.81 and 27.25 and 27.62 and 25.25
PERK 2^DDct (PERK; mean, n 11): 1.00
PERK (Ct) (PERK; mean, n 11): 27.1
PERK DDct (PERK; mean, n 11): 0.29
PERK Dct (PERK; mean, n 11): 14.8
